Assay results published in ChEMBL document CHEMBL2417394, “Exquisite selectivity for human toll-like receptor 8 in substituted furo[2,3-c]quinolines” (J Med Chem, 2013).
The source made the active and inactive calls.

Experiments:
[1] = target: Toll-like receptor 5 (Homo sapiens) (UniProt O60602); test: Antagonist activity at human TLR5 expressed in HEK293 cells co-transfected with MD2 and sAP assessed as inhibition of NF-kappaB activity by reporter gene assay; format: cell-based
[2] = target: T1, Nucleotide-binding oligomerization domain-containing protein 1 (Homo sapiens) (UniProt Q9Y239); test: Antagonist activity at NOD1 (unknown origin)
T1 sequence (whole entry): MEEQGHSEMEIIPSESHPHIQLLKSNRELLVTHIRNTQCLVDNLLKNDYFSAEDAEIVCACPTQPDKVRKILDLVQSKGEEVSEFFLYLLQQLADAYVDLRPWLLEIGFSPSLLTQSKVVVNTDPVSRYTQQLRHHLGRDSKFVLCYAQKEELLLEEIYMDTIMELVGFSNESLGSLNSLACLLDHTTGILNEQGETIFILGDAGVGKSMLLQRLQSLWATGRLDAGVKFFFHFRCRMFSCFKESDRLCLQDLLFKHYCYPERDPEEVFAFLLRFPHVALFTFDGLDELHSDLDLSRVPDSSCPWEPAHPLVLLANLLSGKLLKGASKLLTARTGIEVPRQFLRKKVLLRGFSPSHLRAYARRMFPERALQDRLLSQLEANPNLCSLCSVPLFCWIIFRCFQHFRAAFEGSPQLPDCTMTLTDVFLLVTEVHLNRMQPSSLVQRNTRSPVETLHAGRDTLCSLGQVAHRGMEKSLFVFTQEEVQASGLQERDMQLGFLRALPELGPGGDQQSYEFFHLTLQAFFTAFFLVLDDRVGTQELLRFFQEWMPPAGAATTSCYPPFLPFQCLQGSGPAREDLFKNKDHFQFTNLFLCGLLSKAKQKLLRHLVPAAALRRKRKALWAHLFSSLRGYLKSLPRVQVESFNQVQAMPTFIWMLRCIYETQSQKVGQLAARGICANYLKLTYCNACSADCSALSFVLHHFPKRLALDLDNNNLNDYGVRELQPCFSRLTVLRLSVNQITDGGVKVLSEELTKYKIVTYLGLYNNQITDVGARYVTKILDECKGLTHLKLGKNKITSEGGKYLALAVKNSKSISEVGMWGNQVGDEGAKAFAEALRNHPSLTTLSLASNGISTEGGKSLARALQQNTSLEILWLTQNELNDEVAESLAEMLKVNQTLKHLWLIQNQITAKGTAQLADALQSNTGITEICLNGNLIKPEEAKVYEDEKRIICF

[3] = target: Nucleotide-binding oligomerization domain-containing protein 2 (Homo sapiens) (UniProt Q9HC29); test: Antagonist activity at NOD2 (unknown origin)
[4] = target: Toll-like receptor 4 (Homo sapiens) (UniProt O00206); test: Antagonist activity at human TLR4 expressed in HEK293 cells co-transfected with MD2 and sAP assessed as inhibition of NF-kappaB activity by reporter gene assay; format: cell-based
[5] = target: Toll-like receptor 3 (Homo sapiens) (UniProt O15455); test: Antagonist activity at human TLR3 expressed in HEK293 cells co-transfected with MD2 and sAP assessed as inhibition of NF-kappaB activity by reporter gene assay; format: cell-based
[6] = target: Toll-like receptor 2 (Homo sapiens) (UniProt O60603); test: Antagonist activity at human TLR2 expressed in HEK293 cells co-transfected with MD2 and sAP assessed as inhibition of NF-kappaB activity by reporter gene assay; format: cell-based
[7] = target: T2, Toll-like receptor 8 (Homo sapiens) (UniProt Q9NR97); test: Antagonist activity at human TLR8 expressed in HEK293 cells co-transfected with MD2 and sAP assessed as inhibition of NF-kappaB activity by reporter gene assay; format: cell-based
T2 sequence (whole entry): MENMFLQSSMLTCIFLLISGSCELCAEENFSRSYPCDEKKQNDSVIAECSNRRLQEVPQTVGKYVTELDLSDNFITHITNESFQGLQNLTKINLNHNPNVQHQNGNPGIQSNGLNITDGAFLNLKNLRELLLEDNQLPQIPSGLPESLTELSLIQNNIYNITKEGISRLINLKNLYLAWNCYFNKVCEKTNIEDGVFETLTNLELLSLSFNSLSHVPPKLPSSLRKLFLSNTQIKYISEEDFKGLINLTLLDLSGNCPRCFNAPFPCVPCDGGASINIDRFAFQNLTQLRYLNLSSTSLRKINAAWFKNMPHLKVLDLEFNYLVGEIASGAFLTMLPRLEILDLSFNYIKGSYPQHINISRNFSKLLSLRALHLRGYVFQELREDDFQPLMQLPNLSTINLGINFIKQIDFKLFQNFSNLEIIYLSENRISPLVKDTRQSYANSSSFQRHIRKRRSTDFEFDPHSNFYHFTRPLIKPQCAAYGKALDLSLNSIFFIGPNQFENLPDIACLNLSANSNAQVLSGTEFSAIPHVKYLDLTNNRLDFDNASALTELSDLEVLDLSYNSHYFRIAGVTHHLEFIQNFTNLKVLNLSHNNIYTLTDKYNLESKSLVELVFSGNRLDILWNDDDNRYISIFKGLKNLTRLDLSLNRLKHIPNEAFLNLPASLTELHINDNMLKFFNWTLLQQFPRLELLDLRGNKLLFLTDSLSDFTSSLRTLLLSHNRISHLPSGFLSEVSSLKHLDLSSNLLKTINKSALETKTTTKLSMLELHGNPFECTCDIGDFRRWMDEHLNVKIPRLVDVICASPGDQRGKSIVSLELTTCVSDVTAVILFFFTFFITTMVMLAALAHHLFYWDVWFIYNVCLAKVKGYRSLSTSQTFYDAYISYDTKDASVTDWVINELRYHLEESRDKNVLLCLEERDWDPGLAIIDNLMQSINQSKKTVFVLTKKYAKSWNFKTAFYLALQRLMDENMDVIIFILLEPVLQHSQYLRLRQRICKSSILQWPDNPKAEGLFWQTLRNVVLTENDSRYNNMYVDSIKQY

Measured: inhibition

Toll-like receptor 5 (Homo sapiens), sequence (O60602 whole entry, the tested form may be a part): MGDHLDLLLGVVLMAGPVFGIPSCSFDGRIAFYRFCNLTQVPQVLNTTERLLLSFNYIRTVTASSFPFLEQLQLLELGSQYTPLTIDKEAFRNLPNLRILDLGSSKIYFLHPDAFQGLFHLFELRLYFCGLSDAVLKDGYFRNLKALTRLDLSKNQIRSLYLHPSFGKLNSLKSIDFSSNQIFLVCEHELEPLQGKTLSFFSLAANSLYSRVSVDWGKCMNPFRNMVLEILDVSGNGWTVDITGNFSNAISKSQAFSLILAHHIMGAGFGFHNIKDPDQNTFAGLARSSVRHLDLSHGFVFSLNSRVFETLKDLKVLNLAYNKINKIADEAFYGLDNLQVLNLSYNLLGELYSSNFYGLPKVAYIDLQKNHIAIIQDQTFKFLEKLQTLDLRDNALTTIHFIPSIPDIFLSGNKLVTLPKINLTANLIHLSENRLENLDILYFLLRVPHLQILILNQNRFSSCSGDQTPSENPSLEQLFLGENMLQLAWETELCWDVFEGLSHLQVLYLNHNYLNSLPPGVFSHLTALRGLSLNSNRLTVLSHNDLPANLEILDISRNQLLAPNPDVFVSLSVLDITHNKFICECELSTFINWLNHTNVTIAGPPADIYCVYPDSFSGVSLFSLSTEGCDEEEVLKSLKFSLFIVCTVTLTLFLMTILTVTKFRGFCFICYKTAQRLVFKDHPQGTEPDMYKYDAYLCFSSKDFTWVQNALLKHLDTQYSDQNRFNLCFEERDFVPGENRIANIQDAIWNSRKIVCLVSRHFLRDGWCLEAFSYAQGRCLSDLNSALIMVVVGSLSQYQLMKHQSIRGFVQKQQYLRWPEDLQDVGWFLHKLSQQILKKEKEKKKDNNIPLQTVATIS
Toll-like receptor 4 (Homo sapiens), sequence (O00206 whole entry): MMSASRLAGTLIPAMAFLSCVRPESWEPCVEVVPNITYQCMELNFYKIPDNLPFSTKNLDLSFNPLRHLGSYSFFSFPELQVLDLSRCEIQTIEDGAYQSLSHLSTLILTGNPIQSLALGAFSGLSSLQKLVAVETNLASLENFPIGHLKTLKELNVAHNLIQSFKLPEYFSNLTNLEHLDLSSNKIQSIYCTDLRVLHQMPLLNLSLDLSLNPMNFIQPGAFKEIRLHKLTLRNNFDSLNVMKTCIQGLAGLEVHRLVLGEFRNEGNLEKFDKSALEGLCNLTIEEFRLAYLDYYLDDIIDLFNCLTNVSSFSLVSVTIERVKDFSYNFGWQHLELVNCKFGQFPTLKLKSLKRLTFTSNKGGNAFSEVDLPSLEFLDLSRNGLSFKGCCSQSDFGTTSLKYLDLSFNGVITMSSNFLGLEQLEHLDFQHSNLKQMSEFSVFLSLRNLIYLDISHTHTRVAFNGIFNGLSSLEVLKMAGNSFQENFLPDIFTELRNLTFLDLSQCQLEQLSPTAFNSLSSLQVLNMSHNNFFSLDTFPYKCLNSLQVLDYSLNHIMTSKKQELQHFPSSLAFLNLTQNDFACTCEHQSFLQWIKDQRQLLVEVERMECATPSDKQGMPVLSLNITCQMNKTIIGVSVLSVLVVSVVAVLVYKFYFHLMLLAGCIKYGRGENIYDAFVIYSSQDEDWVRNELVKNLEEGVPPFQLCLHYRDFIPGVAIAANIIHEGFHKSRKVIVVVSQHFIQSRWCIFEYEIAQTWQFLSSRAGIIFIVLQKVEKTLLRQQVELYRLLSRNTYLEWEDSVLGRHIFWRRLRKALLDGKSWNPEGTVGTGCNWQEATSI
Toll-like receptor 3 (Homo sapiens), sequence (O15455 whole entry): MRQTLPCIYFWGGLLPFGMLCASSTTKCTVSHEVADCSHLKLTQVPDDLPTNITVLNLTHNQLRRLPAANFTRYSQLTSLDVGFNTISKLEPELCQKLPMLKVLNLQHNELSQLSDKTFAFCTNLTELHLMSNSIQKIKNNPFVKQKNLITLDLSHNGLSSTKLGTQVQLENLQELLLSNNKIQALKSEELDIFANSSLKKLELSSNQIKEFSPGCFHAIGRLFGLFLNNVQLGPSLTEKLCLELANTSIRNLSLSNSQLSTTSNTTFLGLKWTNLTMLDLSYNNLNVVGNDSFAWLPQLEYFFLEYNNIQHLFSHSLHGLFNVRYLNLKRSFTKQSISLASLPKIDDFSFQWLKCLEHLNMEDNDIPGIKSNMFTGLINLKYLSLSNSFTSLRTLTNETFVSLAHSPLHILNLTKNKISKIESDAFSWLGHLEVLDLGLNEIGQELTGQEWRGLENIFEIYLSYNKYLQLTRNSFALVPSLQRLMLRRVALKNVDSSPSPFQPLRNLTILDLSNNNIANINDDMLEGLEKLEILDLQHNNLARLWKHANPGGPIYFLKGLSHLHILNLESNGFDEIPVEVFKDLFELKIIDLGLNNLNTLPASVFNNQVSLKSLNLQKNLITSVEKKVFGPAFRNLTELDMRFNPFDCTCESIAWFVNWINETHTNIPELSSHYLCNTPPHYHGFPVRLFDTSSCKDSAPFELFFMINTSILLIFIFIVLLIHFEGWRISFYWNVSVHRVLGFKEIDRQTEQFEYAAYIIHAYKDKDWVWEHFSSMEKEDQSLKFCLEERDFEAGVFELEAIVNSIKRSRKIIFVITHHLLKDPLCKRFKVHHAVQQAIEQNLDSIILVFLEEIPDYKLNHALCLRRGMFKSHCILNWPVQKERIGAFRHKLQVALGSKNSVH
Nucleotide-binding oligomerization domain-containing protein 2 (Homo sapiens), sequence (Q9HC29 whole entry, the tested form may be a part): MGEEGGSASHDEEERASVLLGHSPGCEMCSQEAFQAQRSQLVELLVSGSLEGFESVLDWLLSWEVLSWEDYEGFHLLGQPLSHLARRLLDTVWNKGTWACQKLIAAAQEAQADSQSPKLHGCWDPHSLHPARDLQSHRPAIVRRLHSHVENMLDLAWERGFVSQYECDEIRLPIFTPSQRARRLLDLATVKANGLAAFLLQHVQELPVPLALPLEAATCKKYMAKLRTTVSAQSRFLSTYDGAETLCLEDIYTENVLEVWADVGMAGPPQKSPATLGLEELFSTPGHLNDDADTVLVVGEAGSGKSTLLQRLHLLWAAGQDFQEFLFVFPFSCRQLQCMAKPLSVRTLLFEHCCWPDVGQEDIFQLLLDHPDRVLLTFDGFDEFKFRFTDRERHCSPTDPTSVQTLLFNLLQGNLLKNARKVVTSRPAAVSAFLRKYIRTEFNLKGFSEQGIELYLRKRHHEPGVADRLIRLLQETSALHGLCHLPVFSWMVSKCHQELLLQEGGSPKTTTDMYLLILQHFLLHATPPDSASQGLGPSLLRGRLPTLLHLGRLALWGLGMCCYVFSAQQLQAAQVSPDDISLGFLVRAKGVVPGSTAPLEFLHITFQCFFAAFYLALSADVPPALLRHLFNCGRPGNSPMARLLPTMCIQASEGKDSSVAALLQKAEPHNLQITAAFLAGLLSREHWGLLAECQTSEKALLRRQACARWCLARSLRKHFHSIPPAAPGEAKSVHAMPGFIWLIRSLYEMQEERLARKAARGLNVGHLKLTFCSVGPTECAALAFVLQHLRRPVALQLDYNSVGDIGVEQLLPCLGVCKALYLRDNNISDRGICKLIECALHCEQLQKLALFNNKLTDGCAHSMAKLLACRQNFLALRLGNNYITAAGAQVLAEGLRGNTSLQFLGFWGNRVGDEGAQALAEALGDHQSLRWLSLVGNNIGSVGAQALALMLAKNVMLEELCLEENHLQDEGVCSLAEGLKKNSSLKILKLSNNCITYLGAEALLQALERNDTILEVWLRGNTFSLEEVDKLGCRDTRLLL
Toll-like receptor 2 (Homo sapiens), sequence (O60603 whole entry): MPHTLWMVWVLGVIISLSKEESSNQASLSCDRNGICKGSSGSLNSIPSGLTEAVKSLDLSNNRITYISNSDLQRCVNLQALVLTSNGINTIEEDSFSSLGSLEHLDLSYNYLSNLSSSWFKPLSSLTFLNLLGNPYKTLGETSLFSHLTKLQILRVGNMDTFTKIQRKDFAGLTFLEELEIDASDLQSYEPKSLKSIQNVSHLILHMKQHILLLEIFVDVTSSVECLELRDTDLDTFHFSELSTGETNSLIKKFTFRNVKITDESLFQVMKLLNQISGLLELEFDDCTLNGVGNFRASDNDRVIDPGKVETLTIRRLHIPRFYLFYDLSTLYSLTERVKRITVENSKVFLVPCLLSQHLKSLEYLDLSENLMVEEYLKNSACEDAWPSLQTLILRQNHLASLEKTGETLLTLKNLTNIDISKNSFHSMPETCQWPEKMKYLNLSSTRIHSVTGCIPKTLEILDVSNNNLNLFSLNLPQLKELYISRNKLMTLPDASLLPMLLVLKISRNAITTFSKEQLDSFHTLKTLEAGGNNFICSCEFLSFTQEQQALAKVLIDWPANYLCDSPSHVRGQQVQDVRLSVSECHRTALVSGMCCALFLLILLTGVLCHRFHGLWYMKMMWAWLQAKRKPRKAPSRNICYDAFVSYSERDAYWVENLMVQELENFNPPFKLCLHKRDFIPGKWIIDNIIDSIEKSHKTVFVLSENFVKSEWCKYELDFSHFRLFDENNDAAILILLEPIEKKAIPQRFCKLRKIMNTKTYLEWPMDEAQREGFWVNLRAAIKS

Nc1nc2ccccc2c2oc(-c3ccccc3)cc12
inactive: all assays above

CCCCc1cc2c(N)nc3ccccc3c2o1
inactive: all assays above

CCCCc1cc2c(nc(N)c3ccccc32)o1
inactive: all assays above

CCCc1cc2c(N)nc3ccccc3c2o1
inactive: all assays above
